The values below come from US10919885B2, “Compounds and uses thereof” (Yumanity Therapeutics, Inc., priority 2018, dated 2021).

Where a name gives a salt, the structure may show the parent alone.

One experiment has as its target human SCD5 (Homo sapiens (Human), UniProt Q86SK9). Put plainly: Yeast growth assay, strain expressing human SCD5 as the sole desaturase (reduced growth as surrogate for SCD inhibition). The format is cell-based. Conditions: yeast with OLE1 deleted expressing human SCD5 from a plasmid; growth read as OD600 after 40 h at 30° C.; top drug concentration 33.3 μM. An outline of the steps: (§1)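 Yeast lacking OLE1 depend on plasmid-borne human SCD1 or SCD5 and are tested in SD-Ura medium without oleic/palmitoleic acid or Tween.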

For another experiment, the target named is human SCD1 (Homo sapiens (Human), UniProt O00767). Put plainly: Yeast growth assay, strain expressing human SCD1 as the sole desaturase (reduced growth as surrogate for SCD inhibition). Format: cell-based. Conditions: yeast with OLE1 deleted expressing human SCD1 from a plasmid; growth read as OD600 after 40 h at 30° C.; top drug concentration 33.3 μM. An outline of the steps: as §1
Sequence of human SCD1 (O00767 whole entry): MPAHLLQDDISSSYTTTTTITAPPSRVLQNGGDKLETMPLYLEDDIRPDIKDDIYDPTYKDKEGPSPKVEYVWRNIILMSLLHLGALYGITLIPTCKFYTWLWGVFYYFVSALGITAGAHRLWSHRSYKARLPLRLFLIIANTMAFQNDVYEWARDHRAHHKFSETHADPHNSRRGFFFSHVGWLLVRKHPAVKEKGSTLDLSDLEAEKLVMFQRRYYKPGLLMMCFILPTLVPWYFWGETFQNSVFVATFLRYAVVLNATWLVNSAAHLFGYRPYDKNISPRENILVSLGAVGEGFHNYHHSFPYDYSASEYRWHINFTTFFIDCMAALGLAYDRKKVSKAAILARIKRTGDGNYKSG

Sequence of human SCD5 (Q86SK9 whole entry): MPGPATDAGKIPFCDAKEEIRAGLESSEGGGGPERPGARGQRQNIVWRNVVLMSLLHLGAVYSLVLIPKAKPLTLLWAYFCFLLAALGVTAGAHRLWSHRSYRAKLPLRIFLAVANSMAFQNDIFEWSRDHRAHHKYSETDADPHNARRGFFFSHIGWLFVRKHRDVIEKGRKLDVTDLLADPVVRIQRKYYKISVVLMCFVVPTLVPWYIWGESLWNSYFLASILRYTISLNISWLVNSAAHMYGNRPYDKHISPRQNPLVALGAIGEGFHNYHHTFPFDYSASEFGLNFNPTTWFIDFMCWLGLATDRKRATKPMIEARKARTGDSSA

For `C=Cc1cc(C(=O)Nc2cnn(Cc3cccc(F)c3)c2)no1` [Compound 106, N-(1-(3-fluorobenzyl)-1H-pyrazol-4-yl)-5-vinylisoxazole-3-carboxamide], the results for the half-maximal inhibitory concentration (IC50) against human SCD5 and against human SCD1 were 1.9 µM and 0.048 µM, respectively.

Take `O=C(c1cc(-c2cccnc2)on1)N1CCC(c2ccccc2)CC1` [Compound 315, (4-phenylpiperidin-1-yl)(5-(pyridin-3-yl)isoxazol-3-yl)methanone, trifluoroacetic acid salt]: the concentration for half-maximal inhibition (IC50) – broadly, the concentration at which inhibition is half-maximal – was determined as 1.06 µM against human SCD5 and 3.84 µM against human SCD1.

For `COc1ccccc1-c1cc(C(=O)N2CCC(c3ccccc3)CC2)no1` [Compound 320], the IC50 against human SCD5 and against human SCD1 was greater than 45 µM throughout.

As to `CC(C)c1cc(C(=O)Nc2cc3ccccn3n2)no1` [Compound 176], the IC50 at human SCD5 and on human SCD1 was greater than 45 µM each time.

With `O=C(Nc1cnn(Cc2cccc(F)c2)c1)c1cc(-c2ccccn2)on1` [Compound 54], the IC50 at human SCD5 is greater than 45 µM; on human SCD1, 2.04 µM.

In the case of `O=C(c1cc(-c2ccc3c(c2)OCO3)on1)N1CCCC1c1cccnn1` (centres unmarked) [Compound 391], the IC50 against human SCD5 and against human SCD1 was greater than 45 µM in each case.

For the compound `N#Cc1ccc(Cn2cc(NC(=O)c3cc(-c4ccccc4)on3)cn2)nc1` [Compound 63], the IC50 against human SCD5 and against human SCD1 was greater than 45 µM each time.

Regarding `COc1ccc(C2CCCN2C(=O)c2cc(-c3ccc(C(F)(F)C(F)(F)F)cc3)on2)cc1` (centres unmarked) [Compound 392], the IC50 on human SCD5 and on human SCD1 was greater than 45 µM in each case.

Regarding `O=C(c1cc(-c2ccccc2)on1)N1CCC(c2ccccc2)C1` (centres unmarked) [Compound 330], the figures for the half-inhibitory concentration (IC50) at human SCD5 and against human SCD1 were 2.6 µM and greater than 45 µM, respectively.

Consider `O=C(c1cc(-c2ccccc2)on1)N1CCC(Oc2ccccc2)CC1` [Compound 288, (4-phenoxy-1-piperidyl)-(5-phenylisoxazol-3-yl)methanone], for which the figures for the IC50 on human SCD5 and against human SCD1 were 4.16 µM and greater than 45 µM, respectively.

As to `O=C(c1cc(-c2ccccc2C(F)(F)F)on1)N1CCC(c2ccccc2)C1` (centres unmarked) [Compound 346], the figures for the half-inhibitory concentration (IC50) against human SCD5 and against human SCD1 were 7.35 µM and greater than 45 µM, respectively.

Consider `O=C(c1cc(-c2ccc3c(c2)OCO3)on1)N1CCCC1c1ccc(F)cn1` (centres unmarked) [Compound 272], for which the IC50 against human SCD5 and at human SCD1 was greater than 45 µM each time.

As to `Cc1nn(Cc2ccccc2)cc1NC(=O)c1cc(-c2ccccc2)on1` [Compound 66], the IC50 was greater than 45 µM on human SCD5 and 1.83 µM against human SCD1.

In the case of `COc1ccc(C2CCCN2C(=O)c2cc(-c3ccc4ncoc4c3)on2)cc1` (centres unmarked) [Compound 401], the IC50 on human SCD5 and on human SCD1 was greater than 45 µM in each case.

For `N#Cc1ccccc1C1CCCN1C(=O)c1cc(-c2ccc3c(c2)OCO3)on1` (centres unmarked) [Compound 398], the IC50 against human SCD5 and on human SCD1 was greater than 45 µM each time.

As to `O=C(c1cc(-c2ccc3c(c2)OCO3)on1)N1CC2(C1)CN(c1ccccc1)C2` [Compound 222], the IC50 on human SCD5 and on human SCD1 was greater than 45 µM in each case.

For `O=C(c1cc(-c2ccnnc2)on1)N1CCC[C@H]1c1ccccc1` [Compound 433], the IC50 on human SCD5 is greater than 45 µM; against human SCD1, 36.8 µM.

Consider `O=C(c1cc(-c2ccco2)on1)N1CC(Nc2ccccc2)C1` [Compound 210], for which the half-inhibitory concentration (IC50) against human SCD5 and on human SCD1 was greater than 45 µM in each case.

As to `COc1ccc(-c2cc(C(=O)N3CC(c4cccc(F)c4)C3)no2)cc1OC` [Compound 236], the IC50 on human SCD5 came to 1.55 µM; against human SCD1, 3.33 µM.

As for `O=C(Nc1cnn(-c2ccccc2)c1)c1cc(-c2ccco2)on1` [Compound 33], the IC50 against human SCD5 and against human SCD1 was greater than 45 µM in each case.

As to `CN1CCC(C2CCCN2C(=O)c2cc(-c3ccc4c(c3)OCO4)on2)CC1` (centres unmarked) [Compound 424], the IC50 at human SCD5 and against human SCD1 was greater than 45 µM each time.

Consider `N#Cc1ccccc1-c1cc(C(=O)Nc2cnn(Cc3cccc(F)c3)c2)no1` [Compound 103], for which the concentration for half-maximal inhibition (IC50) against human SCD5 and at human SCD1 was greater than 45 µM in each case.

In the case of `O=C(c1cc(CC2CC2)on1)N1CCCC1c1ccccc1` (centres unmarked) [Compound 384], the IC50 against human SCD5 is greater than 45 µM; on human SCD1, 30 µM.

For `N#Cc1cccnc1C1CCCN1C(=O)c1cc(-c2ccc3c(c2)OCO3)on1` (centres unmarked) [Compound 448], the concentration for half-maximal inhibition (IC50) against human SCD5 and on human SCD1 was greater than 45 µM each time.

Consider `O=C(c1cc(-c2ccccn2)on1)N1CCC(c2cccc(F)c2)C1` (centres unmarked) [Compound 352], for which the results for the IC50 against human SCD5 and against human SCD1 were 9 µM and greater than 45 µM, respectively.

Consider `O=C(c1cc(-c2ccc3c(c2)OCO3)on1)N1CCCC1c1ccccn1` (centres unmarked) [Compound 361], for which the half-inhibitory concentration (IC50) against human SCD5 and against human SCD1 was greater than 45 µM throughout.

Regarding `O=C(c1cc(-c2ccco2)on1)N(Cc1ccc(Cl)cc1)c1cnn(Cc2ccc(Cl)cc2)c1` [Compound 32], the IC50 on human SCD5 and on human SCD1 was greater than 45 µM throughout.

Consider `Cn1ncc2cccc(C3CCCN3C(=O)c3cc(-c4ccc5c(c4)OCO5)on3)c21` (centres unmarked) [Compound 425], for which the IC50 against human SCD5 and against human SCD1 was greater than 45 µM in each case.

In the case of `O=C(Nc1cnn(Cc2ccccc2)c1)c1cc(-c2ccccc2Cl)on1` [Compound 141], the IC50 on human SCD5 and at human SCD1 was greater than 45 µM throughout.

As for `O=C(c1cc(-c2ccc3c(c2)OCO3)on1)N1CCCC1c1cnccn1` (centres unmarked) [Compound 418], the 50% inhibitory concentration (IC50) at human SCD5 and at human SCD1 was greater than 45 µM in each case.

Regarding `CN1CCC2(CCN(C(=O)c3cc(-c4ccccc4)on3)C2)C1` (centres unmarked) [Compound 342], the IC50 against human SCD5 and at human SCD1 was greater than 45 µM in each case.

As to `O=C(NC1CCNC1)c1cc(-c2ccco2)on1` (centres unmarked) [Compound 336], the IC50 on human SCD5 and against human SCD1 was greater than 45 µM throughout.

In the case of `O=C(Nc1cnn(Cc2cc(F)ccc2C(F)(F)F)c1)c1cc(-c2ccccc2)on1` [Compound 74], the IC50 on human SCD5 and against human SCD1 was greater than 45 µM in each case.

Take `Cc1csc(-c2cc(C(=O)Nc3cnn(Cc4ccccc4)c3)no2)n1` [Compound 143]: the IC50 against human SCD5 and at human SCD1 was greater than 45 µM throughout.

On to `O=C(c1cc(-c2ccccc2)on1)N1CCCC1Cc1ccccc1` (centres unmarked) [Compound 436], for which the IC50 is 8.9 µM on human SCD5 and greater than 45 µM on human SCD1.

With `COc1ccc(C2CCCN2C(=O)c2cc(-c3ccc4ocnc4c3)on2)cc1` (centres unmarked) [Compound 400], the IC50 on human SCD5 and against human SCD1 was greater than 45 µM each time.

Take `O=C(c1cc(-c2cccnc2)on1)N1CCC[C@H]1c1ccccc1` [Compound 405]: the 50% inhibitory concentration (IC50) against human SCD5 was greater than 45 µM; against human SCD1 it was 33.3 µM.

With `O=C(c1cc(-c2ccc3c(c2)OCO3)on1)N1C[C@@H](O)C[C@H]1c1ccccc1` [Compound 421], the IC50 against human SCD5 and at human SCD1 was greater than 45 µM throughout.

Turning to `O=C(c1cc(-c2ccccc2)on1)N1CC2(CNC2)C1` [Compound 345], the half-inhibitory concentration (IC50) against human SCD5 and against human SCD1 was greater than 45 µM in each case.

On to `O=C(Nc1cnn(Cc2ccccc2)c1)c1cc(C2CC2)on1` [Compound 119, N-(1-benzyl-1H-pyrazol-4-yl)-5-cyclopropylisoxazole-3-carboxamide], for which the concentration for half-maximal inhibition (IC50) stood at 2 µM at human SCD5 and 0.11 µM at human SCD1.

Consider `O=C(Nc1cnn(Cc2ncccc2C(F)(F)F)c1)c1cc(-c2ccccc2F)on1` [Compound 196], for which the 50% inhibitory concentration (IC50) on human SCD5 and on human SCD1 was greater than 45 µM throughout.

For `COc1ccc(Cn2cc(NC(=O)c3cc(-c4ccccc4)on3)cn2)cc1` [Compound 109], the half-maximal inhibitory concentration (IC50) on human SCD5 and at human SCD1 was greater than 45 µM in each case.

With `O=C(Nc1cnn(Cc2cccc(F)c2)c1)c1cc(-c2ncccn2)on1` [Compound 46], the half-maximal inhibitory concentration (IC50) against human SCD5 was greater than 45 µM; on human SCD1 it was 22.6 µM.

As for `O=C(c1cc(-c2ccccc2)on1)N1CCC(c2cccnc2)CC1` [Compound 322], the IC50 at human SCD5 and against human SCD1 was greater than 45 µM each time.

As to `O=C(c1ccccc1)N1CCN(C(=O)c2cc(-c3ccc4c(c3)OCO4)on2)CC1` [Compound 281], the IC50 on human SCD5 and against human SCD1 was greater than 45 µM throughout.

For the compound `O=C(Nc1cnn(Cc2cccnc2C(F)(F)F)c1)c1cc(-c2ccccc2F)on1` [Compound 177], the concentration for half-maximal inhibition (IC50) against human SCD5 and at human SCD1 was greater than 45 µM in each case.

For `CN(C)CCC(c1ccccc1)n1cc(NC(=O)c2cc(-c3ccccc3)on2)cn1` (centres unmarked) [Compound 65], the IC50 against human SCD5 and at human SCD1 was greater than 45 µM each time.

`O=C(c1cc(-c2ccccc2)on1)N1CCN(c2ccccc2F)CC1` [Compound 284]: the 50% inhibitory concentration (IC50) against human SCD5 and on human SCD1 was greater than 45 µM in each case.

`O=C(c1cc(-c2ccc3ncnn3c2)on1)N1CCC[C@H]1c1ccccc1` [Compound 441]: the IC50 on human SCD5 is greater than 45 µM; on human SCD1, 32.4 µM.

For `Cn1ncc2ccc(-c3cc(C(=O)N4CC(c5ccccc5)C4)no3)cc21` [Compound 232, (5-(1-methyl-1H-indazol-6-yl)isoxazol-3-yl)(3-phenylazetidin-1-yl)methanone], the IC50 against human SCD5 was 1.63 µM; against human SCD1 it was greater than 45 µM.

As for `O=C(NC1CCN(Cc2ccccc2)CC1)c1cc(-c2ccco2)on1` [Compound 285], the IC50 against human SCD5 and against human SCD1 was greater than 45 µM throughout.

Consider `N#Cc1cccc(-c2cc(C(=O)N3CCC(c4ccccc4)CC3)no2)c1` [Compound 317], for which the IC50 at human SCD5 and against human SCD1 was greater than 45 µM each time.

For the compound `O=C(c1ccncc1)N1CCN(C(=O)c2cc(-c3ccc4c(c3)OCO4)on2)CC1` [Compound 276], the IC50 against human SCD5 and at human SCD1 was greater than 45 µM throughout.

In the case of `C#Cc1cc(C(=O)Nc2cnn(Cc3cccc(F)c3)c2)no1` [Compound 154, 5-ethynyl-N-(1-(3-fluorobenzyl)-1H-pyrazol-4-yl)isoxazole-3-carboxamide], the IC50 was found to be 5.2 µM against human SCD5 and 1.6 µM against human SCD1.

With `O=C(c1cc(-c2ccccn2)on1)N1CCC(c2ccccc2)CC1` [Compound 318], the figures for the IC50 against human SCD5 and against human SCD1 were 14.1 µM and greater than 45 µM, respectively.
